Structures are written as SMILES.

As a reminder, the IC50 is the midpoint of a concentration-inhibition curve.

One assay has as its system CD69 expression. Nature of the assay: Blockade of CD69 Expression in Human Whole Blood Samples. The format is cell-based. To be noted: 30 minutes pre-incubation, activation with anti-IgM, cells gated on CD20, CD69 by FACS. Here is the method: Activation of the B cell receptor leads to increased BTK activity, calcium mobilization and B cell activation (see Honigberg L. A., et. al., Proc Natl Acad Sci USA. 107:13075-80. 2010). […] CD69 was expressed following B cell activation as a measure of BTK activity in whole blood. Aliquots of whole blood were pre-incubated with serial dilutions of test compound for 30 minutes followed by activation with anti-IgM (goat Fab′ 2, 50 μg/ml). Samples were incubated overnight at 37° C. and then stained with PE labeled anti-CD20 and APC labeled anti-CD69 (BD Pharmingen) for 30 minutes according to the manufacturer's directions. Whole blood was then lysed and cells gated on CD20 expression were quantified for CD 69 expression by FACS. The percent inhibition was calculated based on a DMSO control for no inhibition and plotted as a function of test compound concentration from which an IC50 value was calculated.
(Flow cytometry measures light scatter and fluorescence of single cells or particles in a stream.)

A further assay addresses human recombinant BTK (Homo sapiens (Human), UniProt Q06187). In words: BTK Enzymatic Activity Assay (Caliper-based kinase assay). Format: biochemical. Conditions: human recombinant BTK (0.5 nM), ATP (16 μM), peptide substrate (1 μM), room temperature for 3 h. Here is the method:
A Caliper-based kinase assay (Caliper Life Sciences, Hopkinton, Mass.) was used to measure inhibition of BTK kinase activity of a compound of the present disclosure. Serial dilutions of test compounds were incubated with human recombinant BTK (0.5 nM), ATP (16 μM) and a phosphoacceptor peptide substrate FAM-GEEPLYWSFPAKKK-NH2 (1 μM) at room temperature for 3 h. The reaction was then terminated with EDTA, final concentration 20 mM and the phosphorylated reaction product was quantified on a Caliper Desktop Profiler (Caliper LabChip 3000). Percent inhibition was calculated for each compound dilution and the concentration that produced 50% inhibition was calculated. This value is presented as the IC50.

Chain of human recombinant BTK (Q06187 whole entry): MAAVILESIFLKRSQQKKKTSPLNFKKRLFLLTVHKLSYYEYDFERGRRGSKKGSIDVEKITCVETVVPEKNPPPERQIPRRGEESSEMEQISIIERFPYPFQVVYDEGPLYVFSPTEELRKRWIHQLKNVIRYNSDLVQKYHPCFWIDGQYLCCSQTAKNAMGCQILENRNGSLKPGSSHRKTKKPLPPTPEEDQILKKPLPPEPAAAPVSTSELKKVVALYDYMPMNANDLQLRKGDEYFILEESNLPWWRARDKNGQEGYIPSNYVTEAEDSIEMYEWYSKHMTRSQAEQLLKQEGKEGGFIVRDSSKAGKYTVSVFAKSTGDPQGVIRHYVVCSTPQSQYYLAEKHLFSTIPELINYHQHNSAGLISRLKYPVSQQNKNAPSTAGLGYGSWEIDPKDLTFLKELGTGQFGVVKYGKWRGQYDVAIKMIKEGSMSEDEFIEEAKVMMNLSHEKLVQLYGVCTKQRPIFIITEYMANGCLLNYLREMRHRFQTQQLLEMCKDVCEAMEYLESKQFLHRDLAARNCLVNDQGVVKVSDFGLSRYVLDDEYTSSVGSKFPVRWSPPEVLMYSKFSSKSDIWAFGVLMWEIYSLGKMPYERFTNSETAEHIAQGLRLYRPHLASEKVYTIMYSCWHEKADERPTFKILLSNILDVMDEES

In the case of `CC(C)(C=C(C#N)C(=O)N1CCC[C@@H](n2nc(-c3ccc(Oc4ccccc4)cc3F)c3c(N)nccc32)C1)N1CCN(C2COC2)CC1` [Compound 1, (R)-2-(3-(4-amino-3-(2-fluoro-4-phenoxyphenyl)-1H-pyrazolo[4,3-c]pyridin-1-yl)piperidine-1-carbonyl)-4-methyl-4-(4-(oxetan-3-yl)piperazin-1-yl)pent-2-enenitrile], the IC50 in the assay on CD69 expression was 109 nM.

On to `CC(C)(C=C(C#N)C(=O)N1CCC[C@@H](n2nc(-c3ccc(Oc4ccccc4)cc3F)c3c(N)nccc32)C1)N1CCN(C2(C)COC2)CC1` [Compound 7, (R)-2-(3-(4-amino-3-(2-fluoro-4-phenoxyphenyl)-1H-pyrazolo[4,3-c]pyridin-1-yl)piperidine-1-carbonyl)-4-methyl-4-(4-(3-methyloxetan-3-yl)piperazin-1-yl)pent-2-enenitrile], for which half-maximal inhibition in the assay with CD69 expression (IC50) required 114 nM. In turn, `CN(C1COC1)C(C)(C)C=C(C#N)C(=O)N1CCC[C@@H](n2nc(-c3ccc(Oc4ccccc4)cc3F)c3c(N)nccc32)C1` [Compound 14, (R)-2-(3-(4-amino-3-(2-fluoro-4-phenoxyphenyl)-1H-pyrazolo[4,3-c]pyridin-1-yl)piperidine-1-carbonyl)-4-methyl-4-(methyl(oxetan-3-yl)amino)pent-2-enenitrile] yielded an IC50 in the assay on CD69 expression of 181 nM. As for `CC(C)(C=C(C#N)C(=O)N1CCC[C@@H](n2nc(-c3ccc(C(=O)Nc4ccccn4)cc3)c3c(N)nccc32)C1)N1CCN(C2COC2)CC1` [Compound 47, (R)-4-(4-amino-1-(1-(2-cyano-4-methyl-4-(4-(oxetan-3-yl)piperazin-1-yl)pent-2-enoyl)piperidin-3-yl)-1H-pyrazolo[4,3-c]pyridin-3-yl)-N-(pyridin-2-yl)benzamide], the IC50 at human recombinant BTK worked out at 4.1 nM. Consider `CC1(C=C(C#N)C(=O)N2CCC[C@@H](n3nc(-c4ccc(Oc5ccccc5)cc4F)c4c(N)nccc43)C2)CCOCC1` [Compound 48, (R)-2-(3-(4-amino-3-(2-fluoro-4-phenoxyphenyl)-1H-pyrazolo[4,3-c]pyridin-1-yl)piperidine-1-carbonyl)-3-(4-methyltetrahydro-2H-pyran-4-yl)acrylonitrile], for which the IC50 on human recombinant BTK is 3.1 nM. `CC1(C=C(C#N)C(=O)N2CCC[C@@H](n3nc(-c4ccc(Oc5ccccc5)cc4F)c4c(N)nccc43)C2)CCN(C2COC2)CC1` [Compound 49, (R)-2-(3-(4-amino-3-(2-fluoro-4-phenoxyphenyl)-1H-pyrazolo[4,3-c]pyridin-1-yl)piperidine-1-carbonyl)-3-(4-methyl-1-(oxetan-3-yl)piperidin-4-yl)acrylonitrile]: the 50% inhibitory concentration (IC50) at human recombinant BTK was determined as 1.8 nM. Take `CC(C)(C=C(C#N)C(=O)N1CCC[C@@H](n2nc(-c3ccc(C(=O)Nc4cc(F)ccn4)cc3)c3c(N)nccc32)C1)N1CCN(C2COC2)CC1` [Compound 50, (R)-4-(4-amino-1-(1-(2-cyano-4-methyl-4-(4-(oxetan-3-yl)piperazin-1-yl)pent-2-enoyl)piperidin-3-yl)-1H-pyrazolo[4,3-c]pyridin-3-yl)-N-(4-fluoropyridin-2-yl)benzamide]: on human recombinant BTK, the IC50 is 4.2 nM. In the case of `CN1CCN(C(C)(C)C=C(C#N)C(=O)N2CCC[C@@H](c3nc(-c4ccc(Oc5ccccc5)cc4)c4c(N)nccn34)C2)CC1=O` [Compound 52, (R)-2-(3-(8-amino-1-(4-phenoxyphenyl)imidazo[1,5-a]pyrazin-3-yl)piperidine-1-carbonyl)-4-methyl-4-(4-methyl-3-oxopiperazin-1-yl)pent-2-enenitrile], the IC50 on human recombinant BTK came to 1.8 nM. For `CC1(C=C(C#N)C(=O)N2CCC[C@@H](c3nc(-c4ccc(Oc5ccccc5)cc4F)c4c(N)nccn34)C2)CCOCC1` [Compound 53, (R)-2-(3-(8-amino-1-(2-fluoro-4-phenoxyphenyl)imidazo[1,5-a]pyrazin-3-yl)piperidine-1-carbonyl)-3-(4-methyltetrahydro-2H-pyran-4-yl)acrylonitrile], the IC50 on human recombinant BTK is 2 nM. For the molecule `CC1(C=C(C#N)C(=O)N2CCC[C@@H](c3nc(-c4ccc(Oc5ccccc5)cc4)c4c(N)nccn34)C2)CCOCC1` [Compound 54, (R)-2-(3-(8-amino-1-(4-phenoxyphenyl)imidazo[1,5-a]pyrazin-3-yl)piperidine-1-carbonyl)-3-(4-methyltetrahydro-2H-pyran-4-yl)acrylonitrile], at human recombinant BTK, the IC50 was found to be 1.7 nM.

Turning to `COC(=O)N1CCN(C(C)(C)C=C(C#N)C(=O)N2CCC[C@@H](c3nc(-c4ccc(Oc5ccccc5)cc4)c4c(N)nccn34)C2)CC1` [Compound 56, (R)-methyl 4-(5-(3-(8-amino-1-(4-phenoxyphenyl)imidazo[1,5-a]pyrazin-3-yl)piperidin-1-yl)-4-cyano-2-methyl-5-oxopent-3-en-2-yl)piperazine-1-carboxylate], the IC50 at human recombinant BTK was 1.2 nM. As for `CC(=O)N1CCN(C(C)(C)C=C(C#N)C(=O)N2CCC[C@@H](c3nc(-c4ccc(Oc5ccccc5)cc4)c4c(N)nccn34)C2)CC1` [Compound 57, (R)-4-(4-acetylpiperazin-1-yl)-2-(3-(8-amino-1-(4-phenoxyphenyl)imidazo[1,5-a]pyrazin-3-yl)piperidine-1-carbonyl)-4-methylpent-2-enenitrile], the IC50 on human recombinant BTK was determined as 1.1 nM. As to `COC(=O)N1CCN(C(C)(C)C=C(C#N)C(=O)N2CCC[C@@H](c3nc(-c4ccc(Oc5ccccc5)cc4F)c4c(N)nccn34)C2)CC1` [Compound 58, (R)-methyl 4-(5-(3-(8-amino-1-(2-fluoro-4-phenoxyphenyl)imidazo[1,5-a]pyrazin-3-yl)piperidin-1-yl)-4-cyano-2-methyl-5-oxopent-3-en-2-yl)piperazine-1-carboxylate], the 50% inhibitory concentration (IC50) at human recombinant BTK came to 2.8 nM.

As for `CC(=O)N1CCN(C(C)(C)C=C(C#N)C(=O)N2CCC[C@@H](c3nc(-c4ccc(Oc5ccccc5)cc4F)c4c(N)nccn34)C2)CC1` [Compound 59, (R)-4-(4-acetylpiperazin-1-yl)-2-(3-(8-amino-1-(2-fluoro-4-phenoxyphenyl)imidazo[1,5-a]pyrazin-3-yl)piperidine-1-carbonyl)-4-methylpent-2-enenitrile], the IC50 on human recombinant BTK came out at 1.4 nM. As to `CC(C)(C=C(C#N)C(=O)N1CCC[C@@H](c2nc(-c3ccc(Oc4ccccc4)cc3F)c3c(N)nccn23)C1)N1CCN2C(=O)CC[C@H]2C1` [Compound 62, 2-((R)-3-(8-amino-1-(2-fluoro-4-phenoxyphenyl)imidazo[1,5-a]pyrazin-3-yl)piperidine-1-carbonyl)-4-methyl-4-((S)-6-oxohexahydropyrrolo[1,2-a]pyrazin-2(1H)-yl)pent-2-enenitrile], the IC50 at human recombinant BTK amounted to 2.2 nM. Same read-out and setting: as for `CC(C)(C=C(C#N)C(=O)N1CCC[C@@H](c2nc(-c3ccc(Oc4ccccc4)cc3F)c3c(N)nccn23)C1)N1CCN2C(=O)CC[C@@H]2C1` [Compound 63, 2-((R)-3-(8-amino-1-(2-fluoro-4-phenoxyphenyl)imidazo[1,5-a]pyrazin-3-yl)piperidine-1-carbonyl)-4-methyl-4-((R)-6-oxohexahydropyrrolo[1,2-a]pyrazin-2(1H)-yl)pent-2-enenitrile], the figure is 0.9 nM.

For `CC(C)(C=C(C#N)C(=O)N1CCC[C@@H](c2nc(-c3ccc(Oc4ccccc4)cc3)c3c(N)nccn23)C1)N1CCN2C(=O)CC[C@H]2C1` [Compound 64, 2-((R)-3-(8-amino-1-(4-phenoxyphenyl)imidazo[1,5-a]pyrazin-3-yl)piperidine-1-carbonyl)-4-methyl-4-((S)-6-oxohexahydropyrrolo[1,2-a]pyrazin-2(1H)-yl)pent-2-enenitrile], the IC50 at human recombinant BTK was 0.8 nM.

`CC(C)(C=C(C#N)C(=O)N1CCC[C@@H](c2nc(-c3ccc(Oc4ccccc4)cc3)c3c(N)nccn23)C1)N1CCN2C(=O)CC[C@@H]2C1` [Compound 65, 2-((R)-3-(8-amino-1-(4-phenoxyphenyl)imidazo[1,5-a]pyrazin-3-yl)piperidine-1-carbonyl)-4-methyl-4-((R)-6-oxohexahydropyrrolo[1,2-a]pyrazin-2(1H)-yl)pent-2-enenitrile]: the IC50 at human recombinant BTK is 0.6 nM. Same read-out and setting: as for `CN1CCN(C(=O)C(C#N)=CC(C)(C)C)C[C@@H]1c1nc(-c2ccc(Oc3ccccc3)cc2)c2c(N)nccn12` [Compound 66, (R)-2-(3-(8-amino-1-(4-phenoxyphenyl)imidazo[1,5-a]pyrazin-3-yl)-4-methylpiperazine-1-carbonyl)-4,4-dimethylpent-2-enenitrile], the figure is 0.3 nM. Turning to `CN1CCN(C(=O)C(C#N)=CC2(C)CCOCC2)C[C@@H]1c1nc(-c2ccc(Oc3ccccc3)cc2)c2c(N)nccn12` [Compound 67, (R)-2-(3-(8-amino-1-(4-phenoxyphenyl)imidazo[1,5-a]pyrazin-3-yl)-4-methylpiperazine-1-carbonyl)-3-(4-methyltetrahydro-2H-pyran-4-yl)acrylonitrile], the IC50 at human recombinant BTK stood at 0.2 nM. Take `CN1CCN(C(C)(C)C=C(C#N)C(=O)N2CCC[C@@H](n3nc(-c4ccc(Oc5ccccc5)cc4F)c4c(N)nccc43)C2)CC1=O` [Compound 72, (R)-2-(3-(4-amino-3-(2-fluoro-4-phenoxyphenyl)-1H-pyrazolo[4,3-c]pyridin-1-yl)piperidine-1-carbonyl)-4-methyl-4-(4-methyl-3-oxopiperazin-1-yl)pent-2-enenitrile]: the IC50 on human recombinant BTK turned out to be 2 nM.

These data come from patent US11155544B2, “Heterocycle comprising tyrosine kinase inhibitors” (Principia Biopharma Inc., priority 2015, dated 2021).
